# Calls of active or inactive are those of the source.
# What was measured:
# [1] = target: Polyadenylate-binding protein 1 (Homo sapiens, UniProt P11940); test: PABP poly(A) RNA binding inhibitors, primary screen, biochemical, fluorescence polarization, uHTS (AID 2014)
# [2] = target: Eukaryotic translation initiation factor 4H (Homo sapiens, UniProt Q15056); test: human eIF4H binding inhibitors, primary screen, translation initiation inhibitor project, biochemical, uHTS, fluorescence polarization (AID 2012)
# Estrogen receptor beta = Estrogen receptor beta (Homo sapiens, UniProt Q92731);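 note: recombinant ER-beta bound to coactivator SRC1 peptide in presence of estradiol agonist; inhibitors block coactivator peptide binding and lower the FRET signal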
# [3] = Luminescence Cell-Based Dose Response to Identify Activators of 5'UTR Stem-Loop Driven Prion Protein mRNA Translation in H4-C Neuroglioblastoma Cells. [Related pubchem assays: 1829 (Project Summary), 1814 (Primary HTS)]; assay type: functional
# H4 = test: Luminescence Cell-Based Dose Response HTS to Identify Activators of 5'UTR Stem-Loop Driven Prion Protein mRNA Translation in H4 Neuroglioblastoma Cells. [Related pubchem assays: 1829 (Project Summary), 1814 (Primary HTS)]; assay type: functional; conditions: Homo sapiens
# [4] = target: FAD-linked sulfhydryl oxidase ALR (Homo sapiens, UniProt P55789); test: inhibitors of human ALR sulfhydryl oxidase, dose response, biochemical, H2O2 detection, luminescence, cherry-pick (AID 493248)
# [5] = Luminescence Cell-Based Dose Response HTS to Identify Activators of Luciferase Translation or Activity in H4 […] Cells. [Related pubchem assays: 1829 (Project Summary), 1814 (Primary HTS)]; assay type: functional
# [6] = Luminescence Cell-Based Dose Response to Identify Activators of Luciferase Translation or Activity in H4-C Neuroglioblastoma Cells. [Related pubchem assays: 1829 (Project Summary), 1814 (Primary HTS)]; assay type: functional
# [7] = Luminescence Cell-Based Dose Confirmation to Identify Activators of 5'UTR Stem-Loop Driven Alpha-Synuclein mRNA Translation in H4 Neuroglioblastoma Cells. [Related pubchem assays: 1829 (Project Summary), 1814 (Primary HTS)]; assay type: functional
# [8] = P. falciparum Dd2 growth inhibitors, dose response, SYBR Green, dry powder samples (AID 1159566); assay type: functional, cell-based;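 note: potency for growth inhibition with lower SYBR green DNA signal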
# [9] = P. falciparum 3D7-ScDHODH growth inhibitors, dose response, SYBR Green, dry powder samples (AID 1159570); assay type: functional, cell-based;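 note: parasite growth measured after 72 hours of compound exposure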
# [10] = HepG2 cell cytotoxicity, dose response, cytotoxicity control, plate reader, dry powder samples (AID 1159569); assay type: functional, cell-based;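 note: inhibitor potency with signal falling toward the positive control level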
# [11] = P. falciparum Dd2 growth inhibitors, dose response, SYBR Green, cherry-picked samples (AID 1159567); assay type: functional, cell-based
# [12] = P. falciparum ATP4 D1247Y mutant growth inhibitors, dose response, NITD609-resistant line, SYBR Green, dry powder (AID 1159571); assay type: functional, cell-based;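 note: parasites synchronized at ring stage by sorbitol before testing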
# [13] = target: Peroxisome proliferator-activated receptor gamma/Nuclear receptor coactivator 3 (Homo sapiens, UniProt P37231); assay type: functional;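 note: agonist potency for raising coactivator recruitment to the receptor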
# Peroxisome proliferator-activated receptor gamma/Nuclear receptor coactivator 3, sequence (P37231 whole entry): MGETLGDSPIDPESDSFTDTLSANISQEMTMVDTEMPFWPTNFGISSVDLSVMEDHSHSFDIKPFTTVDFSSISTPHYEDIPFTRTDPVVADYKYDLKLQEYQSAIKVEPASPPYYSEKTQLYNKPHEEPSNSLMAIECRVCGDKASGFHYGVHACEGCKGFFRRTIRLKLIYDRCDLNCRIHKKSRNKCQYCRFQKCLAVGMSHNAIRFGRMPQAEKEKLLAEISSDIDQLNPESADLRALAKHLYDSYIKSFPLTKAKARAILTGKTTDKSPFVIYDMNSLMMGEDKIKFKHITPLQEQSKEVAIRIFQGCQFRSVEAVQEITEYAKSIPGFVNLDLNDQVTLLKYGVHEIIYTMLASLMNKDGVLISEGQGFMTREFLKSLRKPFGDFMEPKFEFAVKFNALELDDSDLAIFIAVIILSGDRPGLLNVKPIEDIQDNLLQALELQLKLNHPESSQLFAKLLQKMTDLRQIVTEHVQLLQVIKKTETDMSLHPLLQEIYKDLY
# Peroxisome proliferator-activated receptor gamma/Nuclear receptor coactivator 3, sequence (Q9Y6Q9 whole entry, further chain): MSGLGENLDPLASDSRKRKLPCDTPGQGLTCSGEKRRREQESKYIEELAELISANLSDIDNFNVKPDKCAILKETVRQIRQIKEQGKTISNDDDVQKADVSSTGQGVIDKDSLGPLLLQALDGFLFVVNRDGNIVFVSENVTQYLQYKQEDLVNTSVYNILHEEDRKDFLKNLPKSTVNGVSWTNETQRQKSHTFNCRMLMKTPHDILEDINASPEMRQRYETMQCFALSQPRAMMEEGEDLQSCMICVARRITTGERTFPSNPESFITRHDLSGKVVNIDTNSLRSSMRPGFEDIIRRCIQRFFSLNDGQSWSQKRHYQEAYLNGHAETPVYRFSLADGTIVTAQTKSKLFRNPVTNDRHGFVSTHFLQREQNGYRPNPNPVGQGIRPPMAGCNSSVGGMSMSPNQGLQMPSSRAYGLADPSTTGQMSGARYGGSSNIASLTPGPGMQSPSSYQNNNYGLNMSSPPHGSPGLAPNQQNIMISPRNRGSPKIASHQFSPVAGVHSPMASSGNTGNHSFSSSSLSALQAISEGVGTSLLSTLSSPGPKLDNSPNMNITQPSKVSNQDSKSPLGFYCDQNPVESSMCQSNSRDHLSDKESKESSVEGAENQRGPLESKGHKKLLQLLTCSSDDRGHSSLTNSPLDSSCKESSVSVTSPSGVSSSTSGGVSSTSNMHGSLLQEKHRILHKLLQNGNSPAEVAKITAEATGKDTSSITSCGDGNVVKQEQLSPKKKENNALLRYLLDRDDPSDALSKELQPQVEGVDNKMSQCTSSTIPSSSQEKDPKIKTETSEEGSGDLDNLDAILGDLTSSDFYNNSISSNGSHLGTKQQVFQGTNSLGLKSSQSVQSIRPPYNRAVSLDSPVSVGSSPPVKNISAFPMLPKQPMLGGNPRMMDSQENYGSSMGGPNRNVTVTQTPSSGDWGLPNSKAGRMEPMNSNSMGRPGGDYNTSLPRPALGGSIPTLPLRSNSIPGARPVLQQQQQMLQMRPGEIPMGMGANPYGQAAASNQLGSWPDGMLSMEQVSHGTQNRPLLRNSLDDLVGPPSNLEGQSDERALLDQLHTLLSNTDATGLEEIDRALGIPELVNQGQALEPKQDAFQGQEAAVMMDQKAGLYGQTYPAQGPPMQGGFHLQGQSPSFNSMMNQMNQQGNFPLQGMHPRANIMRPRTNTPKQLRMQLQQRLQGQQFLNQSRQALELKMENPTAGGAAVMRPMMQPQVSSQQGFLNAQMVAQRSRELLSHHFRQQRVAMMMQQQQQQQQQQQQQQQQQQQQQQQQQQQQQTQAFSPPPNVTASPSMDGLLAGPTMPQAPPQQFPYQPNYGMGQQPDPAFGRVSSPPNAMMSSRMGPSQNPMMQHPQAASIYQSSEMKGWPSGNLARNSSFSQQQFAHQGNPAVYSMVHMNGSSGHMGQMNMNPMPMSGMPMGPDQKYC
# [14] = target: Peroxisome proliferator-activated receptor gamma/Nuclear receptor coactivator 1 (Homo sapiens, UniProt P37231); assay type: functional;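 note: agonist potency as compounds enhance coactivator SRC-1 recruitment to PPARgamma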
# Peroxisome proliferator-activated receptor gamma/Nuclear receptor coactivator 1, sequence (P37231 whole entry): as the sequence (P37231 whole entry) above
# Peroxisome proliferator-activated receptor gamma/Nuclear receptor coactivator 1, sequence (Q15788 whole entry, further chain): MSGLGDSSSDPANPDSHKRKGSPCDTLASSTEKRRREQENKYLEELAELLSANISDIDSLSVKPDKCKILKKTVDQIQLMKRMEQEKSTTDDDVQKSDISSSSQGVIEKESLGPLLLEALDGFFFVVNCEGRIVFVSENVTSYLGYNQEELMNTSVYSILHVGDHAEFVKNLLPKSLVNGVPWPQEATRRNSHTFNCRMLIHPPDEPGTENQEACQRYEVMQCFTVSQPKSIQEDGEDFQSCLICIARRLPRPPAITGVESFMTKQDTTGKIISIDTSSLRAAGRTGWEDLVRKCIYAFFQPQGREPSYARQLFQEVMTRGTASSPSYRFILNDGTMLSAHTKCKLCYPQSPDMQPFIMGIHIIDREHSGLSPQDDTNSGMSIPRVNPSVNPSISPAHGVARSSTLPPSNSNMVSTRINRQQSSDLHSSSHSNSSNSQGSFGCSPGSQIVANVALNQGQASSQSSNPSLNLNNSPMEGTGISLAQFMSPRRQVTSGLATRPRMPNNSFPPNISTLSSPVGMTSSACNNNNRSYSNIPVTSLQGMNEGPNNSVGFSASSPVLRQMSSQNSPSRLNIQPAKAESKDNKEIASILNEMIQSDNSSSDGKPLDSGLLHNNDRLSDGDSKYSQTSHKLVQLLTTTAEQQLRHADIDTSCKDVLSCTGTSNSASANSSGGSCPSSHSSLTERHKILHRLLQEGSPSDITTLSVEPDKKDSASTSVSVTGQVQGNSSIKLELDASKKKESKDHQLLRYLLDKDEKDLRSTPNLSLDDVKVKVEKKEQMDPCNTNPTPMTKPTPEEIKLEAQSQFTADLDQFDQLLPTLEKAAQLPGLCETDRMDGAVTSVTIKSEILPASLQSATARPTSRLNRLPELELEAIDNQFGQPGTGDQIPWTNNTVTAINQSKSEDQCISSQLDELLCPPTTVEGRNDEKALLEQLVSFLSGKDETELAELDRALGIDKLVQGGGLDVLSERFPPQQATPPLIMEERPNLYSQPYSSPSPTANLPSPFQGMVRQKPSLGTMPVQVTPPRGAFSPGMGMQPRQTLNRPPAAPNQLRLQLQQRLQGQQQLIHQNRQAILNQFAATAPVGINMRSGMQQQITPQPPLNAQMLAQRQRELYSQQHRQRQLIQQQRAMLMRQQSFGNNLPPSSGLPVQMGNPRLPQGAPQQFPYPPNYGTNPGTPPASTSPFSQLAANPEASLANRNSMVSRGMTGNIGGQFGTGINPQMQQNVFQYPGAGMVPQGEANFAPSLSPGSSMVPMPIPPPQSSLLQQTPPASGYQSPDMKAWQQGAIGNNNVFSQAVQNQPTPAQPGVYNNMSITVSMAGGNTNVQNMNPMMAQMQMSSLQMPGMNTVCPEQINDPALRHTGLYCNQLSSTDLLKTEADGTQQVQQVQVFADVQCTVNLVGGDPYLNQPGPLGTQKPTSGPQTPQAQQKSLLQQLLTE
# [15] = target: Peroxisome proliferator-activated receptor gamma/Nuclear receptor coactivator 2 (Homo sapiens, UniProt P37231); assay type: functional;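 note: agonist potency for raising coactivator recruitment to the receptor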
# HEK293 [16] = test: cells; assay type: functional, cell-based; conditions: Homo sapiens
# HEK293 [17] = test: NOD1 signaling inhibitors, primary screen, cell-based, luminescence, uHTS (AID 1578); assay type: functional; conditions: Homo sapiens
# BJ [18] = test: cytotoxicity toward BJ-TERT fibroblasts, dose response, cell-based, RAS-independent, luminescence (AID 1933); assay type: functional; conditions: Homo sapiens
# [19] = target: Nucleotide-binding oligomerization domain-containing protein 2 (Homo sapiens, UniProt Q9HC29); test: NOD2 signaling inhibitors, cell-based, luminescence, uHTS, HEK293 (AID 1566); assay type: functional
# Nucleotide-binding oligomerization domain-containing protein 2, sequence (Q9HC29 whole entry, the tested form may be a part): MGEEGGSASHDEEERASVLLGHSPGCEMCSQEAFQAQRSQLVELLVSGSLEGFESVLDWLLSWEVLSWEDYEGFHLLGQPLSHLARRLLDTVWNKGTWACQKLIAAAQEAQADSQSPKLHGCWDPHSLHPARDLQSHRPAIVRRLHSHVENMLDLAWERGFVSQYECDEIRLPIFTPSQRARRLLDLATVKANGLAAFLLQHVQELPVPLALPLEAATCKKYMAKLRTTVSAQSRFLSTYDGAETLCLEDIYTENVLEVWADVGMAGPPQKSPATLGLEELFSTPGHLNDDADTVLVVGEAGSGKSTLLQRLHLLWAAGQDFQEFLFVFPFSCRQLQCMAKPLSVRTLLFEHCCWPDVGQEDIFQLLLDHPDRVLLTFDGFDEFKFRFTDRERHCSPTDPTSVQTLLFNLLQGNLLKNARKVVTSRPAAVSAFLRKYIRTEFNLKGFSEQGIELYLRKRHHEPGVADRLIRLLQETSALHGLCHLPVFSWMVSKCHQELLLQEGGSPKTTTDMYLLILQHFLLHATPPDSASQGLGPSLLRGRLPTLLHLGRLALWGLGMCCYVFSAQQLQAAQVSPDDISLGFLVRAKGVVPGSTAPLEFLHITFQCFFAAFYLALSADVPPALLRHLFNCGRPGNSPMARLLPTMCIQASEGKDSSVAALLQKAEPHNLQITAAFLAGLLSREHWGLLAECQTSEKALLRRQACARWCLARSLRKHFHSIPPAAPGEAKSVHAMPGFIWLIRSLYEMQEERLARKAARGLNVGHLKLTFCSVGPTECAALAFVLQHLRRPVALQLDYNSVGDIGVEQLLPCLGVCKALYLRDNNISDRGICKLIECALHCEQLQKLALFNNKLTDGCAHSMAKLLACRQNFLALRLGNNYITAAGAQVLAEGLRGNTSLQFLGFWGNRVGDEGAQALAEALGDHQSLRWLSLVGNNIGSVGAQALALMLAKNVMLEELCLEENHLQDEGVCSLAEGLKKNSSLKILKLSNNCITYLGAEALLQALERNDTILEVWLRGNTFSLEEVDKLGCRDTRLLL
# [20] = cytotoxicity toward DRD oncogenic fibroblasts, dose response, cell-based, non-viral oncogenic, luminescence (AID 1934); assay type: functional; conditions: Homo sapiens
# HEK293 [21] = test: NOD2 signaling inhibitors in MDP-stimulated cells, cell-based, uHTS, luminescence (AID 2001); assay type: functional; conditions: Homo sapiens
# HEK293 [22] = test: cells; assay type: functional, cell-based; conditions: Homo sapiens; remark: listed apart in the source
# [23] = inhibitors of intracellular T. cruzi replication, confirmation, NIH3T3 host cells, beta-gal luminescence (AID 2044); assay type: functional, cell-based;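 note: intracellular parasites grown in NIH/3T3 mouse fibroblasts as host cells; luminescent beta-galactosidase reporter signal from transgenic T. cruzi replicating inside host cells; inhibitors lower the luminescence signal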
# [24] = cytotoxicity toward NIH3T3 fibroblasts, dose response, counter-screen, cell-based, ATP luminescence, mouse fibroblasts (AID 2010); assay type: functional;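 note: cells exposed to compound for about 90 hours before reading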
# BJ [25] = test: cytotoxicity toward BJ-TERT-LT-ST fibroblasts, dose response, cell-based, RAS-independent, luminescence (AID 1935); assay type: functional; conditions: Homo sapiens;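 note: BJ fibroblasts immortalized with TERT plus LT and ST oncogenes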
# BJ [26] = test: cells; assay type: functional, cell-based; conditions: Homo sapiens
# HEK293 [27] = test: cells; assay type: functional, cell-based; conditions: Homo sapiens; remark: listed apart in the source
smiles,measurement,setting,value
CC(C)(C#CCCCCC#CC(C)(C)[N+](C)(C)C)[N+](C)(C)C,IC50,[1],7.97 µM (active)
same,IC50,[2],> 100 µM (inactive)
CSc1nc(O)c2c(n1)N=C1CCCC(O)=C1C2c1cccs1 (stereo not given),IC50,Estrogen receptor beta,11.4 µM (active)
CN(C)c1ccc(/C=C/c2nnnn2-c2ccccc2)cc1,EC50,[3],0.463 µM (active)
same,EC50,H4,< 0.1 µM (active)
same,AC50,[4],0.894 µM (active)
same,EC50,[5],< 0.1 µM (inconclusive)
same,EC50,[6],0.323 µM (active)
same,EC50,[7],0.365 µM (active)
C[C@H]1CN([C@@H](C)CO)C(=O)c2c(c3ccccc3n2C)-c2ccccc2CO[C@@H]1CN(C)Cc1ccc(Cl)c(Cl)c1,AC50,[8],1.43 µM (active)
same,AC50,[9],3.11 µM (active)
same,AC50,[10],18.4 µM (active)
same,AC50,[11],1.94 µM (active)
same,AC50,[12],1.87 µM (active)
COc1ccc(CN2C[C@H](C)[C@@H](OC)CN(C)C(=O)c3ccc(NC(=O)c4nc5ccccc5s4)cc3OC[C@@H]2C)cc1,AC50,[8],2.64 µM (active)
same,AC50,[9],5.03 µM (active)
same,AC50,[10],67.3 µM (active)
same,AC50,[11],2.9 µM (active)
same,AC50,[12],3.82 µM (active)
CCOc1ccc(CCNC(=O)CSc2nn(-c3ccc(C)c(Cl)c3)c(=S)s2)cc1OCC,EC50,[13],> 79.4 µM (not active)
same,EC50,[14],> 79.4 µM (not active)
same,EC50,[15],51.9 µM (not active)
O=C(CSc1nnnn1Cc1ccccc1)NCC(=O)c1ccccc1,EC50,[13],84.7 µM (not active)
same,EC50,[14],> 79.4 µM (not active)
same,EC50,[15],45.9 µM (not active)
COc1cc(/C=C/c2ccc3cccc(O)c3n2)cc(Br)c1OC,IC50,HEK293 [16],10.4 µM (active)
same,EC50,HEK293 [17],> 20 µM (inactive)
same,EC50,BJ [18],10.2 µM (active)
same,EC50,[19],> 20 µM (inactive)
same,EC50,[20],21.1 µM (active)
same,IC50,HEK293 [21],4.13 µM (inactive)
same,IC50,HEK293 [22],> 20 µM (inactive)
same,EC50,[23],0.699 µM (active)
same,EC50,[24],9.61 µM (active)
same,EC50,BJ [25],21.1 µM (active)
same,EC50,BJ [26],35.8 µM (active)
same,IC50,HEK293 [27],> 20 µM (inactive)
CCCn1c(NC(=O)c2ccc(Br)cc2)nc2ccccc21,EC50,[13],13.6 µM (not active)
same,EC50,[14],8.96 µM (active)
same,EC50,[15],9.79 µM (active)
